The results in this text go back to patent US20250152584A1, “NLRP3 INFLAMMASOME INHIBITOR AND USES THEREOF” (TransThera Sciences (Nanjing), Inc., priority 2022, published 2025).

Like-named read-outs stand apart in the source and are kept apart here.

The data set is described as follows: Pharmacokinetic study in C57BL/6J mice. It counts as in vivo. The settings on record: mouse, plasma, C57BL/6J female mice; for Tmax: median, read-out: Tmax po (peak time of plasma concentration); for Cmax: read-out: Cmax po (peak concentration); for clearance: read-out: Cl—obs iv (clearance rate) (converted); for Vd: read-out: Vss iv (volume of distribution); for bioavailability: iv 5 mg/kg / po 10 mg/kg, read-out: F % (absolute bioavailability). The method, then:
Experimental Example 2: Pharmacokinetic Study of Compounds in C57BL/6J Mice
Compound 100, Compound 54, Compound 174, Compound 179, and Compound 253 were prepared into solutions with a mixed solvent formulated from 5% dimethyl sulfoxide, 20% (30% solutol) and 75% normal saline, respectively; the solution of each compound was administered to C57BL/6J female mice by gavage at a dose of 10 mg/kg; and the time points for blood collection were: 15 min, 30 min, 1 h, 2 h, 4 h, 6 h, 8 h and 24 h. The solution of the compound was administered to C57BL/6J female mice by intravenous bolus at a dose of 5 mg/kg, and the time points for blood collection were as follows: 5 min, 15 min, 30 min, 1 h, 2 h, 4 h, 6 h, 8 h, and 24 h.
Compound 1 was prepared into a solution with a mixed solvent formulated from 5% DME, 20% (30% solutol) and 75% normal saline; the solution of this compound was administered to C57BL/6J female mice by gavage at a dose of 10 mg/kg, and the time points for blood collection were: 15 min, 30 min, 1 h, 2 h, 4 h, 6 h, 8 h, and 24 h. The solution of the compound was administered to C57BL/6J female mice by intravenous bolus at a dose of 5 mg/kg, and the time points for blood collection were as follows: 5 min, 15 min, 30 min, 1 h, 2 h, 4 h, 6 h, 8 h, and 24 h.
Compound 195 was prepared into a solution with a mixed solvent formulated from 5% dimethyl sulfoxide, 20% PEG400 and 75% normal saline; the solution of this compound was administered to C57BL/6J female mice by gavage at a dose of 10 mg/kg; and the time points for blood collection were 15 min, 30 min, 1 h, 2 h, 4 h, 6 h, 8 h, and 24 b. The solution of the compound was administered to C57BL/6J female mice by intravenous bolus at a dose of 5 mg/kg, and the time points for blood collection were as follows: 5 min, 15 min, 30 min, 1 h, 2 b, 4 h, 6 h, 8 h, and 24 h.
Approximately 100 μL of blood was collected through the retroorbital venous plexus, and was then placed in an anticoagulant tube containing EDTA-K2. Blood samples were centrifuged at 12,000 rpm for 10 min at 4° C. to obtain plasma samples, and plasma was prepared within 30 min after blood collection. The plasma was stored in a −80° C. freezer before testing.
• 1. The samples were taken from the −80° C. freezer, thawed naturally at room temperature, and then vortexed for 5 min • 2. 10 μL of a plasma sample was precisely pipetted from different individuals into a 1.5 mL centrifuge tube. • 3. 300 μL of an internal standard working solution (the acetonitrile solution of tolbutamide) at a concentration of […] was added and mixed well. • 4. After vortexing for 5 min, the mixture was centrifuged at 12,000 rpm for 5 min. • 5. 50 μL of the supernatant was accurately pipetted into a 96-well plate preloaded with water at 150 μL/well. • 6. Vortexing was performed for 5 min for sufficient mixing, and LC-MS/MS analysis was then conducted.
The results of the concentrations of the compounds under test were output using Analyst 1.6.3 of AB. Parameters such as mean, standard deviation, coefficient of variation was calculated by Microsoft Excel (parameters directly output by Analyst 1.6.3 needed no calculation), and PK parameters were calculated by WinNonlin Phenoix 8.2 software NCA (Tmax as the median).

[1] abbreviates: po, gavage 10 mg/kg, read-out: AUClast po (area under the drug-time curve for 0-24 h).
The mark [2] stands for this setting: po, gavage 10 mg/kg, read-out: tz1/2 po (terminal elimination half-life) (converted).
Where [3] appears, read: intravenous bolus 5 mg/kg, read-out: AUClast iv (area under the drug-time curve for 0-24 h).
Where [4] appears, read: intravenous bolus 5 mg/kg, read-out: tz1/2 iv (terminal elimination half-life) (converted).

Broadly, the clearance is a measure of how efficiently the substance is removed, as volume per time. For the molecule `C#Cc1ccc(-c2nnc(N[C@@H]3CCCN(C)C3)c3c2CCCC3)c(O)c1` [Compound 1, (R)-5-ethynyl-2-(4-((1-methylpiperidin-3-yl)amino)-5,6,7,8-tetrahydrophthalazin-1-yl)phenol], the bioavailability worked out at 49.9%. Where the note is “po, gavage 10 mg/kg”, the Tmax is 15 min and the Cmax came to 428 ng/mL. The AUC(0-t) under setting [1] amounted to 1890 ng·h/mL. Besides, under setting [2], the half-life was 180 min. In addition, the AUC(0-t) under setting [3] is 1820 ng·h/mL. Further, for the setting “intravenous bolus 5 mg/kg”, the clearance was 44 mL/min/kg and the Vd was 5.22 L/kg. Also, the half-life under setting [4] is 231 min.
`C#Cc1ccc(-c2nnc(N[C@@H]3CCCN(C)C3)c3ccccc23)c(O)c1` [Compound 100, (R)-5-ethynyl-2-(4-((1-methylpiperidin-3-yl)amino)phthalazin-1-yl)phenol]: the bioavailability was determined as 79.4%. For the same molecule, under “po, gavage 10 mg/kg”, the Tmax is 120 min and the Cmax is 1530 ng/mL. Under setting [1], the AUC(0-t) was 10100 ng·h/mL. The half-life under setting [2] is 166 min. In addition, the AUC(0-t) under setting [3] turned out to be 6360 ng·h/mL. In addition, for the setting “intravenous bolus 5 mg/kg”, the clearance is 13.1 mL/min/kg and the Vd was 3.16 L/kg. Besides, the half-life under setting [4] is 182 min.
With `C#Cc1ccc(-c2nnc(N[C@@H]3CCCN(C)C3)nc2C2CC2)c(O)c1` [Compound 179, (R)-2-(5-cyclopropyl-3-((1-methylpiperidin-3-yl)amino)-1,2,4-triazin-6-yl)-5-ethynylphenol], the bioavailability came to 79.2%. Further, where the note is “po, gavage 10 mg/kg”, the Tmax came to 30 min and the Cmax was 1120 ng/mL. Further, the AUC(0-t) under setting [1] came to 3860 ng·h/mL. For the same molecule, under setting [2], the half-life is 131 min. Also, the AUC(0-t) under setting [3] was 2470 ng·h/mL. Also, for the setting “intravenous bolus 5 mg/kg”, the clearance is 32.8 mL/min/kg and the Vd was found to be 5.14 L/kg. In addition, the half-life under setting [4] is 121 min.
`C#Cc1ccc(-c2nnc(N[C@@H]3CCCN(CCO)C3)cc2C)c(O)c1` [Compound 253, (R)-5-ethynyl-2-(6-((1-(2-hydroxyethyl)piperidin-3-yl)amino)-4-methylpyridazin-3-yl)phenol]: the bioavailability was determined as 106%. In addition, where the note is “po, gavage 10 mg/kg”, the Tmax came out at 30 min and the Cmax came out at 2320 ng/mL. Further, the AUC(0-t) under setting [1] was 6900 ng·h/mL. The half-life under setting [2] is 209 min. Also, the AUC(0-t) under setting [3] came out at 3200 ng·h/mL. For the same molecule, where the note is “intravenous bolus 5 mg/kg”, the clearance is 25.5 mL/min/kg and the Vd turned out to be 2.76 L/kg. The half-life under setting [4] was 90 min.
